This passage reports IC50 results from US8809372B2, “Pyridine derivatives” (Endo Pharmaceuticals, Inc., priority 2011, dated 2014).

The target of assay [1] is T1, rat CYP17 (rat testicular microsomes) (Rattus norvegicus, UniProt P11715).
T1 construct: Rat testis tissue was collected and disrupted with 30 strokes of a glass homogenizer; from tissue; host or cells: rat testis (microsomes)
T1 sequence (P11715 1-507): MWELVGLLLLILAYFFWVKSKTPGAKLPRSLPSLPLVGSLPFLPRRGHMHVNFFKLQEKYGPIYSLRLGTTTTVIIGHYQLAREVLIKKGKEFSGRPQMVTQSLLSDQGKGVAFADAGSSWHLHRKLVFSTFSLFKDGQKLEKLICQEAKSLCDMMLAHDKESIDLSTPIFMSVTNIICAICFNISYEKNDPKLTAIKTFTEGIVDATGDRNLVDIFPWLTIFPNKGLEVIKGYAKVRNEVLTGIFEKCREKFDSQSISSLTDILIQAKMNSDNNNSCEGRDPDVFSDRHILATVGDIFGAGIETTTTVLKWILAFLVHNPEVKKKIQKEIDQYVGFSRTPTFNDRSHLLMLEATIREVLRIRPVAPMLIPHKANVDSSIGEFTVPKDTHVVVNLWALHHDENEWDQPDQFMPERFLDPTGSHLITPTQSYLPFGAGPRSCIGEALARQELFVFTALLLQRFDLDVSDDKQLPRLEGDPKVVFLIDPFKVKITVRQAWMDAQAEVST
The assay is described as follows: CYP17 inhibition assay in rat testicular microsomes. It is filed as biochemical. The procedure:
CYP17 Inhibition Assay in Rat Testicular Microsomes (Rat CYP17) or Yeast Microsome Overexpressing Human CYP17
1. NADPH (Sigma): A working stock was prepared by adding 25 μL of 6.5 mM NADPH in each tube. The final concentration of NADPH used in the assay was 325 μM.
2. Potassium Phosphate Buffer: One molar (1M) solutions of K2HPO4 and KH2PO4 were prepared. Eight mL of the 1 M KH2PO4 and 1.98 mL of the 1 M K2HPO4 were combined and the pH was adjusted to 7.4.
3. ^3H3-17α-hydroxypregnenolone (American Radiolabeled Chemicals, Inc., stock 1 μCi/μL): A 1:1 dilution of ^3H3-17α-hydroxypregnenolone in ethanol was prepared by combining 100 μL ^3H3-17α-hydroxypregnenolone+100 μL ethanol for one complete 96 well plate. For the reaction, 2 μL of the diluted ^3H3-17α-hydroxypregnenolone was added in each tube, i.e., 1 μCi/reaction. 4. Microsome Isolation Buffer: The microsome isolation buffer was prepared by combining 250 mM Sucrose, 5 mM EDTA, 10 mM Tris HCl, 4 mM DTT, and adjusting to pH 7.4. 5. TEG Buffer: The TEG buffer was prepared by combining 50 mM Tris HCl, 1 mM EDTA, and 20% Glycerol. 6. Rat Testicular Microsomes: Rat testis tissue was collected and disrupted with 30 strokes of a glass homogenizer on ice with 250 μL of microsome isolation buffer, followed by centrifugation at 10,000 g for 10 minutes at 4° C. The supernatant was collected and centrifuged at 100,000 g for 45 minutes at 4° C. The pellet was dissolved in TEG Buffer and the protein was quantified. The homogenized microsome samples were then frozen at −80° C. • 7. Yeast Microsomes which overexpress the human CYP17 enzyme were obtained from Premas Biotech, India.
Potassium phosphate buffer (470 μL) was prepared as described above and was added to each well of a deep well plate. The test compound was diluted using a TECAN liquid handler and 5 μL of diluted compound was transferred to each well (96 deep well/1 mL). A solution (25 μL) of 6.5 mM NADPH was added (final concentration of 325 μM in the assay). ^3H3-17α-hydroxypregnenolone (2 μL of the working stock) was added to each tube. The plates were then pre-incubated for 15 minutes at 37° C. Following the pre-incubation, either 5 μL rat testicular microsomes (150-160 μg) or 5 μL of yeast microsomes expressing human CYP17 (1.7 pmol), was added. Incubation was at 37° C. for 60 minutes in the presence of oxygen. The plates were then placed in ice and chloroform (500 μL) was added, mixed well and incubated at 4° C. for 20 minutes. The plates were then centrifuged at 1000 rpm for 15 minutes at 4° C.
A portion (300 μL) of the aqueous solution was collected and mixed with a 5% aqueous suspension of activated charcoal (300 μL). The plates were then incubated at 4° C. for 30 minutes, after which the plates were centrifuged at 1000 rpm for 15 minutes at 4° C. From this, 125 μL of the aqueous solution was collected and plated into a 96 well plate. Microscint™ 40 [125 μL, Perkin-Elmer; containing a mixture of a polymer based on alkylphenolethoxylate (20-40%), diethanolamine-phosphoric acid ester ammonium salt (10-20%), sodium dioctyl sulphosuccinate (2.5-10%), triethyl phosphate (2.5-10%), 3,6-dimethyl-4-octyne-3,6-diol (≦2.5%), a polymer based on nonylphenolethoxylate (≦2.5%), diisopropyl naphthalene isomers (40-60%), 2,5-diphenyloxazole (≦2.5%), and 9,10-dimethylanthracene] was added and mixed well. After 30 minutes of incubation, the samples were analyzed with a MicroBeta® Trilux microplate liquid scintillation counter and luminometer (Perkin-Elmer).

Assay [2] addresses T2, human CYP17 in H295R adrenocortical carcinoma cells (Homo sapiens, UniProt P05093).
T2 construct: H295R Adrenocortical carcinoma cells [NCI-H295A, ATCC Number CRL-2128, American Type Culture Collection; host or cells: H295R adrenocortical carcinoma cells
T2 sequence (P05093 1-508): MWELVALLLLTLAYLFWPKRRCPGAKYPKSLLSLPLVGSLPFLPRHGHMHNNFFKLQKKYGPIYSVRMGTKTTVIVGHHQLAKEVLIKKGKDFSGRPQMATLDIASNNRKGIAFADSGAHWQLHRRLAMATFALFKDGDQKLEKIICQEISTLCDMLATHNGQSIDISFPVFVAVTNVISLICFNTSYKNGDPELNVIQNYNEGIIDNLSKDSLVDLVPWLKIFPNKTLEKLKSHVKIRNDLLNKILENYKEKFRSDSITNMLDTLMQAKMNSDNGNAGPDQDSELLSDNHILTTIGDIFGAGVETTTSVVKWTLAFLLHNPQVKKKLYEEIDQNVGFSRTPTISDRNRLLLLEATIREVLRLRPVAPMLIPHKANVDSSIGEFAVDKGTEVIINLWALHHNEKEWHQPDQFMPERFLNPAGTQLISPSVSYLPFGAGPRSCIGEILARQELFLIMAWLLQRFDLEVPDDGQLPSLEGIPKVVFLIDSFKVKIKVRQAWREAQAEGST
In words: Cell-based human CYP17 inhibition assay, H295R cells. The following applies: 16 hours, read-out: CYP17 (human H295R adrenal cells). How it is done:
Cell-Based Human CYP17 Inhibition Assay
1. H295R Adrenocortical Carcinoma Cells and Growth Media: The media for the H295R Adrenocortical carcinoma cells [NCI-H295A, ATCC Number CRL-2128, American Type Culture Collection, Manassas, Va., US] (500 mL) was a DMEM:F12 Mix 1:1 with 5% (2 mL) BD Nu Serum; 1% (5 mL) ITS+Premix [BD Biosciences] and 1% Penstrep. 2. LNCap-CYP17 Cells and Growth Media: Full length hCYP17a1 gene (NCBI Reference Sequence: NM_000102.3) was cloned in pcDNA3.1(+) vector between HindIII and XhoI site. The pcDNA3.1(+) vector contains the Neomycin resistance gene and was used for selection of stable cell line. The hCYP17a1 containing pcDNA3.1(+) was transfected into LNCap cells to create the LNCap-CYP17 cell line. The media for the LNCaP-CYP17 cells was RPMI 1640, 10% FBS, 1% PenStrep, Geneticin 400 μg/mL.
The H295R cells or LNCaP-hCYP17 cells were subcultured and 30,000 cells per well were seeded in a poly-d lysine plate and incubated overnight at 37° C. The next day the media was removed and 200 μL of fresh media with ^3H3-17α-hydroxy-pregnenolone (1:1000) was added. 50 μL of serially diluted compounds from a 5× plate (5 times the final desired concentration) was added. The working concentration range for active, new compounds started from a high concentration of 10 μM with 3-fold serial dilutions generating up to 10 concentrations. The serial dilution in the 100× plate (in DMSO) and the stamping of a 5× plate (in media) from the 100× plate were carried out using a TECAN liquid handling device.
The plates were incubated overnight (16 hours) at 37° C. After 16 hours, the media was removed (approximately 220 μL) and an equal amount of chloroform was added, mixed and incubated for 30 minutes at 4 degrees. The plate was centrifuged at 4000 rpm for 15 minutes at 4° C., following which the top aqueous layer was carefully removed and added into a new deep well plate. An equal volume of activated 5% charcoal was added, mixed and incubated for 30 minutes at 4° C. The plate was then centrifuged at 4000 rpm for 15 minutes at 4° C. and the top layer carefully separated, avoiding any charcoal contamination, and placed in a white, clear bottom plate (plate cat #3610, Corning Life Sciences). An equal volume of Microscint™ 40 was added and mixed well. Following the incubation for 30 minutes, readings for the radiotracer were taken using a Microbeta® trilux.

With `CC(O)(c1ccncc1)c1cnc(-c2ccc(F)c(C#N)c2)s1` (centres unmarked) [Example 40, 2-fluoro-5-(5-(1-hydroxy-1-(pyridin-4-yl)ethyl)thiazol-2-yl)benzonitrile], the IC50 in assay [1] and in assay [2] was less than 50 nM throughout.

Turning to `CC(O)(c1ccncc1)c1cnc(-c2ccc(C(F)(F)F)c(Cl)c2)s1` (centres unmarked) [Example 41, 1-(2-(3-chloro-4-(trifluoromethyl)phenyl)thiazol-5-yl)-1-(pyridin-4-yl)ethanol], the IC50 in assay [1] and in assay [2] was less than 50 nM throughout.

With `CC(O)(c1ccncc1)c1cnc(-c2ccc(Cl)c(C#N)c2)s1` (centres unmarked) [Example 42, 2-chloro-5-(5-(1-hydroxy-1-(pyridin-4-yl)ethyl)thiazol-2-yl)benzonitrile], the IC50 in assay [1] and in assay [2] was less than 50 nM in each case.

As to `CC(O)(c1ccncc1)c1cnc(-c2ccc(Cl)c(Cl)c2)s1` (centres unmarked) [Example 43, 1-(2-(3,4-dichlorophenyl)thiazol-5-yl)-1-(pyridin-4-yl)ethanol], the IC50 in assay [1] and in assay [2] was less than 50 nM throughout.

With `CC(O)(c1ccncc1)c1cnc(-c2ccc(F)c(F)c2)s1` (centres unmarked) [Example 44, 1-(2-(3,4-difluorophenyl)thiazol-5-yl)-1-(pyridin-4-yl)ethanol], the IC50 in assay [1] and in assay [2] was less than 50 nM in each case.

On to `CC(O)(c1ccncc1)c1cnc(-c2ccc(S(C)(=O)=O)cc2)s1` (centres unmarked) [Example 45, 1-(2-(4-(methylsulfonyl)-phenyl)thiazol-5-yl)-1-(pyridin-4-yl)ethanol], for which the IC50 in assay [1] was in the range of 50 to 200 nM; in assay [2], 201 to 10000 nM.

On to `CC(O)(c1ccncc1)c1cnc(-c2ccc(F)c(Cl)c2)s1` (centres unmarked) [Example 46, 1-(2-(3-chloro-4-fluorophenyl)thiazol-5-yl)-1-(pyridin-4-yl)ethanol], for which the IC50 in assay [1] and in assay [2] was less than 50 nM each time.

Turning to `CC(C)CC(O)(c1ccncc1)c1cnc(-c2ccc(F)cc2)s1` (centres unmarked) [Example 47, 1-(2-(4-fluorophenyl)thiazol-5-yl)-3-methyl-1-(pyridin-4-yl)butan-1-ol], the IC50 in assay [1] and in assay [2] was less than 50 nM in each case.

`CC(O)(c1ccncc1)c1cc(-c2ccc(F)cc2)ns1` (centres unmarked) [Example 48, 1-(3-(4-fluorophenyl)isothiazol-5-yl)-1-(pyridin-4-yl)ethanol]: the IC50 in assay [1] and in assay [2] was less than 50 nM throughout.

Regarding `CC(O)(c1ccncc1)c1cc(-c2ccc(F)cc2)n[nH]1` (centres unmarked) [Example 49, 1-(3-(4-fluorophenyl)-1H-pyrazol-5-yl)-1-(pyridin-4-yl)ethanol], the IC50 in assay [1] was less than 50 nM; in assay [2] it was 201 to 10000 nM.

Take `CC(O)(c1ccncc1)c1cc(-c2ccc(F)cc2)on1` (centres unmarked) [Example 50, 1-(5-(4-fluorophenyl)isoxazol-3-yl)-1-(pyridin-4-yl)ethanol]: the IC50 was less than 50 nM in assay [1] and 50 to 200 nM in assay [2].

`CC(O)(c1ccncc1)c1cnc(-c2ccccc2)s1` (centres unmarked) [Example 51, 1-(2-phenylthiazol-5-yl)-1-(pyridin-4-yl)ethanol]: the IC50 in assay [1] and in assay [2] was less than 50 nM in each case.

`CC(O)(c1ccncc1)c1nc(-c2ccc(F)cc2)ns1` (centres unmarked) [Example 52, 1-(3-(4-fluorophenyl)-1,2,4-thiadiazol-5-yl)-1-(pyridin-4-yl)ethanol]: the IC50 in assay [1] and in assay [2] was less than 50 nM throughout.

Take `CC(O)(c1ccncc1)c1nsc(-c2ccc(F)cc2)n1` (centres unmarked) [Example 53, 1-(5-(4-fluorophenyl)-1,2,4-thiadiazol-3-yl)-1-(pyridin-4-yl)ethanol]: the IC50 in assay [1] is 50 to 200 nM; in assay [2], 201 to 10000 nM.

As for `CC(O)(c1ccncc1)c1cnc(-c2ccc(C#N)cc2)s1` (centres unmarked) [Example 56, 4-(5-(1-hydroxy-1-(pyridin-4-yl)ethyl)thiazol-2-yl)benzonitrile], the IC50 in assay [1] was less than 50 nM; in assay [2] it was 50 to 200 nM.

On to `CCC(O)(c1ccncc1)c1ncc(-c2cn[nH]c2)o1` (centres unmarked) [Example 57, 1-(5-(1H-pyrazol-4-yl)oxazol-2-yl)-1-(pyridin-4-yl)propan-1-ol], for which the IC50 in assay [1] lay in the range of 50 to 200 nM; in assay [2] it was 201 to 10000 nM.
